From patent publication US20020076402A1, “Enzyme-based fungicidal composition” (Universite Pierre et Marie Curie, priority 1998, published 2002) come the findings set out here.

Assay [1] deals with Fusarium nivale and Fusarium roseum. As to the kind of experiment: Pelliculisation of corn: degree of contamination by Fusarium sp. The class given is in vivo. How it is done: (§1) Germination inhibition test: The pelliculised grains were placed in Petri dishes containing the growth medium. On the fifth day, the degree of contamination (number of contaminated grains/total number of grains) and degree of germination (number of germinated grains/total number of grains) were determined and compared with those of batches pelliculised with Sepiret 01G alone.
(§2) Formulation: An aqueous suspension of Sepiret 7017 Argent composed of 7 g of commercial slip and 10 ml of water was used. 100 mg of the substances shown below was mixed with 2 ml of the above suspension and this mixture was used to pelliculise batches of 2 g of corn. This latter originated from a culture naturally contaminated with Fusarium nivale and Fusarium roseum: […]
(§3) Mixtures tested: (quantities used to pelliculise 2 g of corn: […]

Another assay concerns corn. Description: Pelliculisation of corn: degree of germination. The format is in vivo. On the procedure: When the test is applied to pelliculised grains or seeds, the degree of germination is determined by the number of grains germinated over the total number of grains, and compared with those of non pelliculised batches, or grains that are pelliculised grains in the absence of enzymes and/or their substrate.
Chitinases alone: quantity used to pelliculise 3 to 4 g of corn naturally contaminated with the phytopathogenic fungi Fusarium nivale and Fusarium roseum: 100 mg of CNase was mixed with 3.4 ml of a suspension of Sepiret 7017 Argent composed of 3.6 g of the commercial suspension and 10 ml of water.
Laminarinases alone: quantity used to pelliculise 2 g of contaminated corn: 40 mg of freeze-dried LMase with a filter of 17 units/mg were mixed with 2 ml of a suspension of Sepiret 7017 Argent composed of 3 g of the commercial suspension and 5 ml of water.
Lysozyme alone: quantity used to pelliculise 2 g of contaminated corn: 100 mg of LZ was mixed with 2 ml of a suspension of Sepiret 7017 Argent composed of 5 g of the commercial suspension and 7.1 ml of water.
as §1, §2, §3

The mark [2] stands for this setting: Example 4, 100 mg substance in 2 ml Sepiret 7017 Argent suspension per 2 g corn, day five.
[3] abbreviates: Example 3 mono-enzymatic mixtures in Sepiret 7017 Argent, fifth day.

For the compound `CC(=O)N[C@H]1C(O)O[C@H](CO)[C@@H](O)[C@@H]1O` (stereo partly shown) [NAG, N-acetylglucosamine, reference compound], the Contamination in assay [1] (setting [2]) came to 70%. Further, in assay [1] (Example 4, vs reference), the “effect on degree of contamination (in words)” value was “no effect”. Moreover, the Germination with corn (setting [2]) is given as 65%.

Regarding lysozyme hydrochloride [LZ], the “inhibition of Fusarium sp. fungi (in words)” value in assay [1] (Example 3, enzyme alone) is “no effect”. For the same compound, the Degree of contamination in assay [1] (setting [3]) came out at 65%. For the same compound, the “relative variation of degree of germination” value in the assay on corn (Example 3, vs own control) was “+20%”. For the same compound, in the assay on corn (setting [3]), the Degree of germination was 85%.
